Results as given in patent US6989245B2, “Screening, diagnostic and therapeutic methods relating to RIZ” (The Burnham Institute, priority 2001, dated 2006).

What was measured:
[1] = test system: histone H1 phosphorylation in MCF7 cells; test: H1 phosphorylation in MCF7 cells by western blot; type: cell-based, human; settings: E2 48 hr
Procedure: MCF-7 and T47-D breast cancer cells were grown in 15 cm dishes in DMEM with 5% FCS, and 2 mM L-glutamine. Subconfluent cells (4×10^6) were then cultured in DMEM without phenol red, serum or hormones for an additional 3 days, during which media was changed twice daily. Cells were incubated for 24 h with or without hormones (50 nM for E2 and 100 nM for R5020) and infected with an adenovirus vector containing RIZ1 (AdRIZ1; at a concentration of 1×10^10 viral particles/15 cm dish) or the empty vector (AdNull) (He et al., Cancer Res. 58:4238-4244 (1998)). Cells were then grown for an additional 48 h in DMEM without phenol red supplemented with 5% charcoal-treated FCS (Omega Scientific). Cells were harvested and proceeded to immunoprecipitation and immunoblot essentially as described (Buyse et al., Proc. Natl. Acad. Sci. U.S.A. 92:4467-4471 (1995); Liu et al., J. Biol. Chem. 272:2984-2991 (1997)). […]
Because H1 phosphorylation has been linked with transcriptional activation (Bhattacharjee et al., Mol. Cell. Biol. 21:5417-5425 (2001); Dou and Gorovsky, Mol. Cell. 6:225-231 (2000)), it was next asked whether E2 or RIZ1 can enhance H1 phosphorylation. Histones were extracted from MCF7 cells infected with AdRIZ1 or control virus and analyzed by western blot analysis using antibodies that recognize specifically phosphorylated H1.

[2] = test system: progesterone receptor gene expression in luminal epithelial cells of the uterus; test: E2 regulation of uterine progesterone receptor expression (immunohistochemistry); type: in vivo, mice
Text: For RIZ staining, the RIZ rabbit antiserum KG7.1S (Buyse et al., Proc. Natl. Acad. Sci. U.S.A. 92:4467-4471 (1995)) was used at an optimal dilution of 1/200. For ERα staining the polyclonal rabbit anti-ERα antibody (sc-542 Santa Cruz) was used at a dilution of 1/250, and for PR staining the polyclonal rabbit anti-PR antibody (A0098 DAKO) was used at a dilution of 1/100, essentially as described (Tibbetts et al., Biol. Reprod. 59:1143-1152 (1998)). Tissues were fixed in Bouin's solution and processed by routine methods for embeddement in paraffin and sectioning (5 μm). […]
To investigate E2-mediated increments in proliferation and hyperemia of uteri and changes in the cellular organization of the vaginal epithelium (Xu et al., Science 279:1922-1925 (1998)), 8-week old female RIZ−/− and RIZ+/+mice were ovariectomized (OVXed). […] The mice were then sacrificed at day 18 and the uterine wet weight was measured, and vaginal tissue was collected. […] The thickness of the vaginal epithelium and the cornified layer was photographed and measured as described in FIG. 4 using the Spot 3.2.4. software (Diagnostic Instruments).
The epithelial and stromal compartments of the uterus were then analyzed for E2-induced changes in progesterone receptor expression. […]

uterus of OVXed mice = test: uterine growth in response to E2 in ovariectomized (OVXed) mice; type: in vivo; settings: E2 0.8 ng/g/day S.C. three days
Procedure: To investigate E2-mediated increments in proliferation and hyperemia of uteri and changes in the cellular organization of the vaginal epithelium (Xu et al., Science 279:1922-1925 (1998)), 8-week old female RIZ−/− and RIZ+/+mice were ovariectomized (OVXed). At day 15-17 following OVX, mice were treated with S.C. injections of E2 (0.8 ng/g/day; Sigma) or with the vehicle (0.1 ml corn oil) alone for three days. The mice were then sacrificed at day 18 and the uterine wet weight was measured, and vaginal tissue was collected. The tissues were processed as above and vaginal specimens were stained with routine H & E and uterine specimens for PR expression. The thickness of the vaginal epithelium and the cornified layer was photographed and measured as described in FIG. 4 using the Spot 3.2.4. software (Diagnostic Instruments).
The RIZ1 mutant mice are deficient in RIZ1, but not RIZ2, and therefore lack specifically any PR-domain related functions of the gene (Steele-Perkins et al., Genes Dev. 15:2250-2262 (2001)). These animals are viable and fertile and show no gross developmental defects (Steele-Perkins et al., supra (2001)). To determine the physiological role of RIZ1 in steroid hormone action, uterine growth in response to E2 was first examined in ovariectomized (OVXed) mice (Lubahn et al., Proc. Natl. Acad. Sci. USA 90:11162-11166 (1993)). Wild-type or heterozygous RIZ1 mutant mice responded to E2 treatment with a 5.3±0.5 and 5.4±0.4 fold increase in uterine wet weight. […] Uterine response to mechanical traumatization (decidual stimulation) is mainly a progesterone receptor-dependent process (Lydon et al., Genes Dev. 9:2266-2278 (1995)). OVXed mice were treated with a high dose of progesterone and a low dose of E2, followed by mechanical stimulation of the left uterine horn of each animal. The unstimulated […] uterine horn served as a control.

RIZ1 HMT activity [3] = test: HMT activity of RIZ1 immunoprecipitated from E2 treated MCF-7 cells; type: cell-based, human; settings: RIZ1 immunoprecipitates
Procedure: (§1) Methylation reactions (30-40 μl) contained 20 mM Tris-HCl (pH8.0), 0.2 M NaCl, 0.4 mM EDTA, affinity-purified GST-RIZ1 or immunoprecipitation products, free histones (20-40 μg) purified from acid extraction of human cancer cells (A549 or U2OS), and 3 μl (1.65 μCi and 21 pmole)[methyl-^3H]-adenosyl-methionine (Amersham-Pharmacia). Nuclear extracts were prepared according to standard procedures and used for immunoprecipitation. Antisera used for immunoprecipitation were anti-KG7.1S and preimmune serum as described previously (Buyse et al., Proc. Natl. Acad. Sci. U.S.A. 92:4467-4471 (1995)). Similar HMT activity has also been observed with immunoprecipitates using a different serum (data not shown), 1715, which was described previously (Steele-Perkins et al., Genes Dev. 15:2250-2262 (2001)). Various amount of SAH (Sigma) were added in some methylation reactions.
To help understand this apparent paradox, the estrogen effects on RIZ1 HMT activity were examined. Nuclear extracts from control and E2 treated MCF-7 cells were immunoprecipitated by RIZ1 serum anti-KG7.1S or preimmune serum. As expected, HMT activity (labeling of H3 and H1) was detected in the immunoprecipitates of RIZ1 serum but not preimmune serum (FIG. 7A, lanes 1 and 3). […] Thus, E2 appears to regulate RIZ1 HMT activity in a selective way, inhibiting specifically methylation of H3 but not H1.

RIZ1 methyltransferase = molecular target: T1, RIZ1 methyltransferase (Homo sapiens, UniProt Q13029, DUP703-703); test: in vitro methylation of histones by immunoprecipitated RIZ1; type: biochemical; settings: 0.42 μM of 3H-SAM
T1 construct: Enzyme activity of full-length RIZ1 protein from mammalian cells was next assayed; expressed in transfected cells; host or cells: U2OS human osteosarcoma cells infected with AdRIZ1 adenovirus
T1 sequence (Q13029 with tags, fused parts or gaps DUP703-703): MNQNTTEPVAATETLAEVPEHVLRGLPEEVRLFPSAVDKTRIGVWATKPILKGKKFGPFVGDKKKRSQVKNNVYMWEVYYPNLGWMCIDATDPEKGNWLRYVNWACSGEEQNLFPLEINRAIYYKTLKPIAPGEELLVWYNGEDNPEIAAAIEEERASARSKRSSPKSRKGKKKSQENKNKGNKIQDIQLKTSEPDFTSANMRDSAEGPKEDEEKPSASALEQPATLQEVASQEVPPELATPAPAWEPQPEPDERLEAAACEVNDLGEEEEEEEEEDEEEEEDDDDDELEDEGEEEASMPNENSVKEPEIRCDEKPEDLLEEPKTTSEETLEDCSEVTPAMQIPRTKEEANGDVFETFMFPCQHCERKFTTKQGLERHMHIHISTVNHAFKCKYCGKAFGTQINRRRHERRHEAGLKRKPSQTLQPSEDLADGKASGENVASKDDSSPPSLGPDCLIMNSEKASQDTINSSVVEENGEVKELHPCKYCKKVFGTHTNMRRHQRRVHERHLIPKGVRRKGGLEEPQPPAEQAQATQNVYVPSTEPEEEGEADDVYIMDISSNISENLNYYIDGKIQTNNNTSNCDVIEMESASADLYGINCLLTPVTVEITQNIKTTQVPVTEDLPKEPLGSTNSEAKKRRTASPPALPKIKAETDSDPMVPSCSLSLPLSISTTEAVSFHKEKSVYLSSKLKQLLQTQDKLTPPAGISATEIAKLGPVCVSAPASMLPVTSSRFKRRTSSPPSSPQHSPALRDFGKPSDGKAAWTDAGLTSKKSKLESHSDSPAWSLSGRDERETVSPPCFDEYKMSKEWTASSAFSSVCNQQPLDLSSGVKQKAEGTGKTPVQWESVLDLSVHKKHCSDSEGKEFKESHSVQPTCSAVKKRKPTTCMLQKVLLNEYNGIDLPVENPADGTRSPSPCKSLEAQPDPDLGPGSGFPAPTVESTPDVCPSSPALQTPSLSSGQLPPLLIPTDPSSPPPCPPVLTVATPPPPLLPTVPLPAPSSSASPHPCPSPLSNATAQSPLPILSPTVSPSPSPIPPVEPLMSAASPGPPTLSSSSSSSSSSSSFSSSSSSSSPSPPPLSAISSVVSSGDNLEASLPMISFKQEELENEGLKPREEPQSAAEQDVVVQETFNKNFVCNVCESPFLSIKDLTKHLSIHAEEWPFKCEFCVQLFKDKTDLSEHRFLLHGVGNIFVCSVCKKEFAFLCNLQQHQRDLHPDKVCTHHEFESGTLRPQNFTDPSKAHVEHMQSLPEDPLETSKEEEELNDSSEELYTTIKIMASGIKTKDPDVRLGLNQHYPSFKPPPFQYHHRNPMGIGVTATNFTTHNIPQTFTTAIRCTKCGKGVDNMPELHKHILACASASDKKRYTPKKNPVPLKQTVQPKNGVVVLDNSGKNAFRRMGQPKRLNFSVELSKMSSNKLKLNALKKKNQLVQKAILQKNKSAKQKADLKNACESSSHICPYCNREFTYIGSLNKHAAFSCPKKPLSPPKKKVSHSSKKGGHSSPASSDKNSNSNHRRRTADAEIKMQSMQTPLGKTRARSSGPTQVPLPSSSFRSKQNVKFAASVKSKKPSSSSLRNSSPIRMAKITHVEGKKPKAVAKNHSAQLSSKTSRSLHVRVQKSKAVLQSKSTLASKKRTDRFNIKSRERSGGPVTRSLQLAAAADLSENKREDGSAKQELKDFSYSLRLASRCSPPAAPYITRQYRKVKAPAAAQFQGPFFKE
Procedure: as §1
In view of RIZ1's role in tumor suppression, it was determined whether S-adenosylhomocysteine (SAH), an analog inhibitor of SAM-dependent methyltransferases whose abnormal accumulation is linked with carcinogenesis, can inhibit RIZ1 enzyme activities. The effect of SAH on the in vitro methylation of histones by immunoprecipitated RIZ1 was tested. A methylation assay was performed in the presence of 0, 0.5 and 5 μM of SAH and 0.42 μM of 3H-SAM.

[4] = molecular target: protein methyltransferase (PMT); settings: universal inhibitor of PMT; cited from earlier work
RIZ1 HMT activity [5] = test: HMT activity of RIZ1 immunoprecipitates from TPA treated U937 cells; type: cell-based, human; settings: 24 hr following TPA treatment
Procedure: as §1
To further study the contrasting behavior of H1 and H3 methylation, regulation of RIZ1 HMT activity by cell growth was examined, using 12-O-tetradecanoyl-phorbol-13-acetate (TPA) treatment of U937 myeloid leukemic cells as a model system. U937 cells undergo growth arrest and terminal differentiation into monocytes when exposed to TPA. This cell model was selected for study because it has been shown in these cells that RIZ gene expression is only marginally regulated by TPA. […]

[6] = test system: prostate of orchiectomized male mice; test: prostate growth in orchiectomized male mice treated with testosterone; type: in vivo; settings: testosterone 3 mg/kg/day S.C. 7 days
Procedure: In order to evaluate the response to testosterone, twelve week old male mice were orchiectomized (ORCed) and testicles were wet weighed (Xu et al., Science 279:1922-1925 (1998)). Nine days following ORC, mice were treated during days 9-15 with S.C. injections of testosterone (3 mg/kg/day, Sigma) or vehicle alone (0.1 ml corn oil). On day 16, mice were sacrificed and the prostate and the pars prostate of the urethra (for technical reasons) were removed and wet weighed.
Eight days after orchiectomization, prostates in both wild-type and mutant animals regressed. Injection of testosterone for 7 days stimulated prostate growth in wild-type animals as well as in RIZ1 null animals. Wild-type and RIZ1 null mutant animals had similar ratios of the weight of prostate and urethra to body weight (1.19±0.03 vs. 1.14±0.03; n=10 and 9 mice for +/+ and −/−, respectively; p=0.23). They also had similar ratios of testis weight to body weight (7.7±0.4 vs. 7.4±0.4; n=14 for both genotypes; p=0.58).

SMILES: C[C@]12CC[C@@H]3c4ccc(O)cc4CC[C@H]3[C@@H]1CC[C@@H]2O [E2, estradiol]
- H1 phosphorylation [1]: increased
- repression of progesterone receptor gene expression ([2]; in the absence of RIZ1): 2 fold
- repression of progesterone receptor gene expression ([2]; in the presence of RIZ1): ~20 fold
- fold increase in uterine wet weight (uterus of OVXed mice; heterozygous RIZ1 mutant OVXed mice): 5.4±0.4 fold
- fold increase in uterine wet weight (uterus of OVXed mice; homozygous RIZ1 mutant OVXed mice): about 3.7±0.4 fold
- fold increase in uterine wet weight (uterus of OVXed mice; wild-type OVXed mice): 5.3±0.5 fold
- H1 methylation by RIZ1 (RIZ1 HMT activity [3]): maintained or slightly enhanced
- H3 methylation by RIZ1 (RIZ1 HMT activity [3]): decreased

SMILES: Nc1ncnc2c1ncn2[C@@H]1O[C@H](CSCC[C@H](N)C(=O)O)[C@@H](O)[C@H]1O [SAH, S-adenosylhomocysteine]
- Histone methylation by RIZ1 (RIZ1 methyltransferase; 0.5 μM of SAH): partially inhibited
- Histone methylation by RIZ1 (RIZ1 methyltransferase; 5 μM of SAH): completely inhibited
- Ki [4]: 5 to 12 µM

SMILES: CCCCCCCCCCCCCC(=O)O[C@@H]1[C@@H](C)[C@@]2(O)[C@@H](C=C(CO)C[C@]3(O)C(=O)C(C)=C[C@@H]23)[C@@H]2C(C)(C)[C@]12OC(C)=O [TPA, 12-O-tetradecanoyl-phorbol-13-acetate]
- H1 methylation by RIZ1 (RIZ1 HMT activity [5]): slightly decreased
- H3 methylation by RIZ1 (RIZ1 HMT activity [5]): increased

SMILES: C[C@]12CC[C@H]3[C@@H](CCC4=CC(=O)CC[C@@]43C)[C@@H]1CC[C@@H]2O [testosterone]
- ratio of the weight of prostate and urethra to body weight ([6]; RIZ1 null mutant orchiectomized mice, n=9): 1.14±0.03
- ratio of the weight of prostate and urethra to body weight ([6]; wild-type orchiectomized mice, n=10): 1.19±0.03
